In patent US20240279220A1, “INDOLE COMPOUNDS AND METHODS OF USE” (Genzyme Corporation, priority 2021, published 2024):

Tested on: NBD1/3D
Assay: Aggregation analysis using differential static light scattering (DSLS), NBD1 thermal stability
Format: binding, Human
Details: ΔTagg versus DMSO control; compound at 100 μM
Method in brief: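 Thermal stabilisation reported as ΔTagg, i.e. aggregation temperature relative to averaged DMSO wells. Tagg came from the inflection of differential static light scattering imaged 25–70 °C while NBD1 (0.2 mg/ml, Tris pH 7.6 buffer containing ATP, MgCl2, DTT, glycerol) was ramped 1 °C/min.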

Compound: O=C(O)CCc1cc(F)cc(C(O)c2c[nH]c(-c3cc(Oc4c(F)cc5[nH]ccc5c4F)ccc3F)n2)c1 (centres unmarked) [Example 178, 3-(3-((2-(5-((4,6-difluoro-1H-indol-5-yl)oxy)-2-fluorophenyl)-1H-imidazol-4-yl)(hydroxy)methyl)-5-fluorophenyl)propanoic acid]
- DSLS NBD1/3D Human Stability delta-T (° C.) @ 100 (μM): B (B: 5-10° C.)

Compound: CC(Cc1cccc([C@H](O)c2cnc(-c3cccc(Oc4c(F)cc5[nH]ccc5c4F)c3)[nH]2)c1)C(=O)O (stereo partly drawn) [Example 181, 3-(3-((S)-(2-(3-((4,6-Difluoro-1H-indol-5-yl)oxy)phenyl)-1H-imidazol-5-yl)(hydroxy)methyl)phenyl)-2-methylpropanoic acid]
- DSLS NBD1/3D Human Stability delta-T (° C.) @ 100 (μM): B (B: 5-10° C.)

Compound: CC(CC(=O)O)c1cccc([C@H](O)c2cnc(-c3cccc(Oc4c(F)cc5[nH]ccc5c4F)c3)[nH]2)c1 (stereo partly drawn) [Example 182, 3-(3-((S)-(2-(3-((4,6-Difluoro-1H-indol-5-yl)oxy)phenyl)-1H-imidazol-5-yl)(hydroxy)methyl)phenyl)butanoic acid]
- DSLS NBD1/3D Human Stability delta-T (° C.) @ 100 (μM): B (B: 5-10° C.)

Compound: CCc1c(Oc2cccc(-c3ncc(C(O)c4cccc(CCC(=O)O)c4)[nH]3)c2)ccc2[nH]ccc12 (centres unmarked) [Example 183, 3-(3-((2-(3-((4-Ethyl-1H-indol-5-yl)oxy)phenyl)-1H-imidazol-5-yl)(hydroxy)methyl)phenyl)propanoic acid]
- DSLS NBD1/3D Human Stability delta-T (° C.) @ 100 (μM): B (B: 5-10° C.)

Compound: Cc1c(Oc2cccc(-c3ncc(C(C)(O)c4cccc(CCC(=O)O)c4)[nH]3)c2)c(F)cc2[nH]ccc12 (centres unmarked) [Example 185, 3-(3-(1-(2-(3-((6-fluoro-4-methyl-1H-indol-5-yl)oxy)phenyl)-1H-imidazol-5-yl)-1-hydroxyethyl)phenyl) propanoic acid]
- DSLS NBD1/3D Human Stability delta-T (° C.) @ 100 (μM): A (A: T ≥ 10° C.)

Compound: Cc1c(Oc2ccc(F)c(-c3ncc(C(C)(O)c4cccc(CCC(=O)O)c4)[nH]3)c2)c(F)cc2[nH]ccc12 (centres unmarked) [Example 186, 3-(3-(1-(2-(2-fluoro-5-((6-fluoro-4-methyl-1H-indol-5-yl)oxy)phenyl)-1H-imidazol-5-yl)-1-hydroxyethyl)phenyl) propanoic acid]
- DSLS NBD1/3D Human Stability delta-T (° C.) @ 100 (μM): B (B: 5-10° C.)

Compound: CC(O)(c1cccc(CCC(=O)O)c1)c1cnc(-c2cc(Oc3c(F)cc4[nH]ccc4c3F)ccc2F)[nH]1 (centres unmarked) [Example 187, 3-(3-(1-(2-(5-((4,6-difluoro-1H-indol-5-yl)oxy)-2-fluorophenyl)-1H-imidazol-5-yl)-1-hydroxyethyl)phenyl) propanoic acid]
- DSLS NBD1/3D Human Stability delta-T (° C.) @ 100 (μM): A (A: T ≥ 10° C.)

Compound: CC(O)(c1cccc(CCC(=O)O)c1)c1c[nH]c(-c2cc(Oc3c(F)cc4[nH]ccc4c3CC(F)F)ccc2F)n1 (centres unmarked) [Example 188, 3-(3-(1-(2-(5-((4-(2,2-difluoroethyl)-6-fluoro-1H-indol-5-yl)oxy)-2-fluorophenyl)-1H-imidazol-4-yl)-1-hydroxyethyl)phenyl) propanoic acid]
- DSLS NBD1/3D Human Stability delta-T (° C.) @ 100 (μM): B (B: 5-10° C.)

Compound: Cc1c(Oc2ccc(F)c(-c3nc(C(C)(O)c4cc(Cl)cc(CCC(=O)O)c4)c[nH]3)c2)c(F)cc2[nH]ccc12 (centres unmarked) [Example 189, 3-(3-chloro-5-(1-(2-(2-fluoro-5-((6-fluoro-4-methyl-1H-indol-5-yl)oxy)phenyl)-1H-imidazol-4-yl)-1-hydroxyethyl)phenyl) propanoic acid]
- DSLS NBD1/3D Human Stability delta-T (° C.) @ 100 (μM): B (B: 5-10° C.)

Compound: CC(O)(c1cccc(CCC(=O)O)c1)c1cnc(-c2cc(Oc3c(F)cc4[nH]ccc4c3CC(F)(F)F)ccc2F)[nH]1 (centres unmarked) [Example 190, 3-(3-(1-(2-(2-fluoro-5-((6-fluoro-4-(2,2,2-trifluoroethyl)-1H-indol-5-yl)oxy)phenyl)-1H-imidazol-5-yl)-1-hydroxyethyl)phenyl) propanoic acid]
- DSLS NBD1/3D Human Stability delta-T (° C.) @ 100 (μM): B (B: 5-10° C.)

Compound: CC(O)(c1cccc(CCC(=O)O)c1)c1cnc(-c2cc(Oc3c(F)cc4[nH]ccc4c3C(F)F)ccc2F)[nH]1 (centres unmarked) [Example 191, 3-(3-(1-(2-(5-((4-(difluoromethyl)-6-fluoro-1H-indol-5-yl)oxy)-2-fluorophenyl)-1H-imidazol-5-yl)-1-hydroxyethyl)phenyl) propanoic acid]
- DSLS NBD1/3D Human Stability delta-T (° C.) @ 100 (μM): B (B: 5-10° C.)

Compound: Cc1c(Oc2ccc(F)c(-c3nc(C(C)(O)c4cc(F)cc(CCC(=O)O)c4)c[nH]3)c2)c(F)cc2[nH]ccc12 (centres unmarked) [Example 192, 3-(3-fluoro-5-(1-(2-(2-fluoro-5-((6-fluoro-4-methyl-1H-indol-5-yl)oxy)phenyl)-1H-imidazol-4-yl)-1-hydroxyethyl)phenyl) propanoic acid]
- DSLS NBD1/3D Human Stability delta-T (° C.) @ 100 (μM): B (B: 5-10° C.)

Compound: CC(O)(c1cccc(CCC(=O)O)c1)c1c[nH]c(-c2cc(Oc3c(F)cc4[nH]ccc4c3C3CC3)ccc2F)n1 (centres unmarked) [Example 193, 3-(3-(1-(2-(5-((4-cyclopropyl-6-fluoro-1H-indol-5-yl)oxy)-2-fluorophenyl)-1H-imidazol-4-yl)-1-hydroxyethyl)phenyl) propanoic acid]
- DSLS NBD1/3D Human Stability delta-T (° C.) @ 100 (μM): B (B: 5-10° C.)

Compound: Cc1c(Oc2ccc(F)c(-c3ncc(C(C)(O)c4cccc(CCC(=O)O)c4)[nH]3)c2)cc(F)c2[nH]ccc12 (centres unmarked) [Example 195, 3-(3-(1-(2-(2-fluoro-5-((7-fluoro-4-methyl-1H-indol-5-yl)oxy)phenyl)-1H-imidazol-5-yl)-1-hydroxyethyl)phenyl) propanoic acid]
- DSLS NBD1/3D Human Stability delta-T (° C.) @ 100 (μM): B (B: 5-10° C.)

Compound: CC(O)(c1cccc(CCC(=O)O)c1)c1cnc(-c2cc(Oc3cc(F)c4[nH]ccc4c3)ccc2F)[nH]1 (centres unmarked) [Example 196, 3-(3-(1-(2-(2-fluoro-5-((7-fluoro-1H-indol-5-yl)oxy)phenyl)-1H-imidazol-5-yl)-1-hydroxyethyl)phenyl) propanoic acid]
- DSLS NBD1/3D Human Stability delta-T (° C.) @ 100 (μM): B (B: 5-10° C.)

Compound: CC(O)(c1cccc(CCC(=O)O)c1)c1cnc(-c2cc(Oc3cc(F)c4[nH]ccc4c3F)ccc2F)[nH]1 (centres unmarked) [Example 197, 3-(3-(1-(2-(5-((4,7-difluoro-1H-indol-5-yl)oxy)-2-fluorophenyl)-1H-imidazol-5-yl)-1-hydroxyethyl)phenyl) propanoic acid]
- DSLS NBD1/3D Human Stability delta-T (° C.) @ 100 (μM): B (B: 5-10° C.)

Compound: CC(O)(c1cccc(CCC(=O)O)c1)c1c[nH]c(-c2cc(Oc3cc4cc[nH]c4c(F)c3F)ccc2F)n1 (centres unmarked) [Example 198, 3-(3-(1-(2-(5-((6,7-difluoro-1H-indol-5-yl)oxy)-2-fluorophenyl)-1H-imidazol-4-yl)-1-hydroxyethyl)phenyl) propanoic acid]
- DSLS NBD1/3D Human Stability delta-T (° C.) @ 100 (μM): A (A: T ≥ 10° C.)

Compound: Cc1c(Oc2ccc(F)c(-c3ncc(C(C)(O)c4cccc(CC(F)C(=O)O)c4)[nH]3)c2)c(F)cc2[nH]ccc12 (centres unmarked) [Example 199, 2-fluoro-3-(3-(1-(2-(2-fluoro-5-((6-fluoro-4-methyl-1H-indol-5-yl)oxy)phenyl)-1H-imidazol-5-yl)-1-hydroxyethyl)phenyl) propanoic acid]
- DSLS NBD1/3D Human Stability delta-T (° C.) @ 100 (μM): A (A: T ≥ 10° C.)

Compound: CC(O)(c1cccc(CCC(=O)O)c1)c1cnc(-c2cc(Oc3c(F)cc4[nH]ccc4c3CCF)ccc2F)[nH]1 (centres unmarked) [Example 200, 3-(3-(1-(2-(2-fluoro-5-((6-fluoro-4-(2-fluoroethyl)-1H-indol-5-yl)oxy)phenyl)-1H-imidazol-5-yl)-1-hydroxyethyl)phenyl) propanoic acid]
- DSLS NBD1/3D Human Stability delta-T (° C.) @ 100 (μM): A (A: T ≥ 10° C.)

Compound: Cc1c(Oc2ccc(F)c(-c3ncc(C(C)(O)c4cccc(CCC(=O)O)c4)[nH]3)c2)c(F)cc2[nH]cc(Cl)c12 (centres unmarked) [Example 201, 3-(3-(1-(2-(5-((3-chloro-6-fluoro-4-methyl-1H-indol-5-yl)oxy)-2-fluorophenyl)-1H-imidazol-5-yl)-1-hydroxyethyl)phenyl) propanoic acid]
- DSLS NBD1/3D Human Stability delta-T (° C.) @ 100 (μM): B (B: 5-10° C.)

Compound: CC(O)(c1cccc(CC(F)C(=O)O)c1)c1cnc(-c2cc(Oc3c(F)cc4[nH]ccc4c3F)ccc2F)[nH]1 (centres unmarked) [Example 202, 3-(3-(1-(2-(5-((4,6-difluoro-1H-indol-5-yl)oxy)-2-fluorophenyl)-1H-imidazol-5-yl)-1-hydroxyethyl)phenyl)-2-fluoropropanoic acid]
- DSLS NBD1/3D Human Stability delta-T (° C.) @ 100 (μM): A (A: T ≥ 10° C.)

Compound: CC(O)(c1cccc(CCC(=O)O)c1)c1c[nH]c(-c2cc(Oc3c(F)cc4[nH]ccc4c3S(C)(=N)=O)ccc2F)n1 (centres unmarked) [Example 203, 3-(3-(1-(2-(2-fluoro-5-((6-fluoro-4-(S-methylsulfonimidoyl)-1H-indol-5-yl)oxy)phenyl)-1H-imidazol-4-yl)-1-hydroxyethyl)phenyl) propanoic acid]
- DSLS NBD1/3D Human Stability delta-T (° C.) @ 100 (μM): A (A: T ≥ 10° C.)

Compound: Cc1c(Oc2ccc(F)c(-c3ncc(C(C)(O)c4cccc(CCC(=O)O)c4)[nH]3)c2)c(F)c(F)c2[nH]ccc12 (centres unmarked) [Example 204, 3-(3-(1-(2-(5-((6,7-difluoro-4-methyl-1H-indol-5-yl)oxy)-2-fluorophenyl)-1H-imidazol-5-yl)-1-hydroxyethyl)phenyl) propanoic acid]
- DSLS NBD1/3D Human Stability delta-T (° C.) @ 100 (μM): B (B: 5-10° C.)

Compound: Cc1c(Oc2cnc(F)c(-c3ncc(C(C)(O)c4cccc(CCC(=O)O)c4)[nH]3)c2)c(F)cc2[nH]ccc12 (centres unmarked) [Example 207, 3-(3-(1-(2-(2-fluoro-5-((6-fluoro-4-methyl-1H-indol-5-yl)oxy)pyridin-3-yl)-1H-imidazol-5-yl)-1-hydroxyethyl)phenyl) propanoic acid]
- DSLS NBD1/3D Human Stability delta-T (° C.) @ 100 (μM): B (B: 5-10° C.)

Compound: Cc1c(Oc2cccc(-c3ncc(C(C)(O)c4cccc(CCS(C)(=O)=O)c4)[nH]3)c2)c(F)cc2[nH]ccc12 (centres unmarked) [Example 208, 1-(2-(3-((6-fluoro-4-methyl-1H-indol-5-yl)oxy)phenyl)-1H-imidazol-5-yl)-1-(3-(2-(methylsulfonyl)ethyl)phenyl)ethan-1-ol]
- DSLS NBD1/3D Human Stability delta-T (° C.) @ 100 (μM): C (C: ≤5° C.)

Compound: CC(O)(c1cccc(CS(N)(=O)=O)c1)c1cnc(-c2cccc(Oc3c(F)cc4[nH]ccc4c3F)c2)[nH]1 (centres unmarked) [Example 209, (3-(1-(2-(3-((4,6-difluoro-1H-indol-5-yl)oxy)phenyl)-1H-imidazol-5-yl)-1-hydroxyethyl)phenyl) methanesulfonamide]
- DSLS NBD1/3D Human Stability delta-T (° C.) @ 100 (μM): B (B: 5-10° C.)
